The results in this text go back to PubChem BioAssay AID1996.

In brackets after ≈: the same amount, converted by molar mass. Some results are limits rather than exact numbers.

The conditions of the series: buffer; pH 7.4; 200.0 µM.
One may read the solubility (kinetic) as solubility judged after dilution from a stock solution rather than from solid. On to `N/C(CN1CCCCC1)=N\S(=O)(=O)c1cc(Cl)cc(Cl)c1`, for which the solubility (kinetic) worked out at 3.7 µg/mL (≈ 10.6 µM). `CCOC(=O)c1ccc(N=c2ssnc2Cl)cc1`: the kinetic solubility stood at 4.8 µg/mL (≈ 16 µM). Compound `Fc1cccc(-c2csc(-c3ccno3)n2)c1` registered a kinetic solubility of 3.6 µg/mL (≈ 14.6 µM). This solubility kinetic and that of the compound before are within 1.5-fold of each other. In turn, `Cc1ccccc1C(=O)N1CCN(c2ncccn2)CC1` came in with a solubility (kinetic) greater than 42.4 µg/mL. Turning to `Nc1nc(Nc2ccccc2F)nc(NCc2ccccc2)c1[N+](=O)[O-]`, the kinetic solubility was less than 0.1 µg/mL.

As for `O=C(Nc1ccc(Cl)cc1)N1CCN(c2ncccn2)CC1`, the kinetic solubility was 44.4 µg/mL (≈ 140 µM).

Compound `Cc1ccc(-n2c(O)c(C=NCc3ccccn3)c(=O)[nH]c2=S)cc1` came in with a kinetic solubility of 29.6 µg/mL (≈ 84 µM). The compound `COc1ccc(S(=O)(=O)N2CCOCC2)cc1NC(=O)COC(=O)c1[nH]c(C)c(C(C)=O)c1C` registered a kinetic solubility of 8.8 µg/mL (≈ 17.8 µM).

Compound `O=C(/C=C/c1ccccc1F)N1CCN(c2ccccn2)CC1` showed a solubility (kinetic) of 35.8 µg/mL (≈ 115 µM). `CN(C)/C=C1\C(=O)N(c2ccc(F)cc2F)C(c2cccnc2)S1(=O)=O` (stereo unspecified) had a solubility (kinetic) greater than 56.9 µg/mL.

`O=[N+]([O-])c1cccc(NC(=S)N2CCCC2)c1` yielded a kinetic solubility greater than 37.7 µg/mL. The same measure for `Nc1ccc(Oc2ccc(F)cc2)nc1`: 27.6 µg/mL (≈ 135 µM). In the case of `Nc1sc2c(c1C(=O)NCCc1ccccc1)CCC2`, the kinetic solubility was found to be 17 µg/mL (≈ 59.4 µM). `COc1ccccc1CC(=O)N1CCN(C(=O)c2ccco2)CC1` showed a solubility (kinetic) of 48.3 µg/mL (≈ 147 µM). In turn, `S=C1CSc2ccccc2N1` yielded a solubility (kinetic) of 25.1 µg/mL (≈ 138 µM). In turn, `Cc1cc(C(=O)OCC(=O)Nc2cccc([N+](=O)[O-])c2)c(C)o1` displayed a kinetic solubility of 3.8 µg/mL (≈ 11.9 µM). Take `C/C=C/c1ccc(OCC(O)CN2CCCCCCC2)c(OC)c1` (stereo unspecified): the kinetic solubility was determined as 35.2 µg/mL (≈ 106 µM). `Nc1cccc(Oc2ccc3c(c2)C(=O)N(CC2CCCO2)C3=O)c1` (stereo unspecified) displayed a kinetic solubility of 41.4 µg/mL (≈ 122 µM). For `CC(C)C(CCNCc1ccccn1)c1ccc(Cl)cc1` (stereo unspecified), the solubility (kinetic) was determined as 24.8 µg/mL (≈ 81.9 µM). This solubility kinetic lies about 1.7-fold lower than the previous one. In turn, `COc1ccc(CC2SC(N)=NC2=O)cc1` (stereo unspecified) returned a kinetic solubility greater than 35.4 µg/mL. Compound `CC(OC(=O)c1c(F)cccc1F)C(=O)NCCC1=CCCCC1` (stereo unspecified) returned a kinetic solubility greater than 50.6 µg/mL. Consider `COc1cc(C)ccc1OCCON1C(=O)CCC1=O`, for which the kinetic solubility is greater than 41.9 µg/mL. `O=C(Cc1ccc(Br)cc1)NC1CCCc2ccccc21` (stereo unspecified) yielded a solubility (kinetic) of 1.5 µg/mL (≈ 4.36 µM). The compound `CSc1ncccc1C(=O)Nc1ccc(OC(F)(F)F)cc1` returned a kinetic solubility of 3.8 µg/mL (≈ 11.6 µM).

In the case of `COc1cc(-c2c(C#N)c(N)nc3[nH]c(=S)[nH]c(=O)c23)ccc1O`, the solubility (kinetic) stood at 11.7 µg/mL (≈ 34.3 µM).

Turning to `Cc1ccc(C(=O)NCC(=O)NCCCc2ccccc2)s1`, the kinetic solubility amounted to 24.9 µg/mL (≈ 78.7 µM). Compared with the last compound, the solubility kinetic is about 2.1-fold higher. The compound `CCOC(=O)c1cc(-c2csc(-c3ccc(C(F)(F)F)cc3)n2)on1` displayed a solubility (kinetic) of less than 0.4 µg/mL.

Compound `O=C(/C=C/c1ccc(F)cc1)c1ccc(N2CCOCC2)cc1` had a kinetic solubility of 2.3 µg/mL (≈ 7.39 µM).

As to `Cc1cccc(NC(=O)c2cccc(NC(=O)c3ccccc3)c2)n1`, the solubility (kinetic) is 7.1 µg/mL (≈ 21.4 µM). Consider `Cc1onc(-c2ccccc2Cl)c1C(=O)N1CCCCC1C` (stereo unspecified), for which the kinetic solubility stood at 45.8 µg/mL (≈ 144 µM). Compound `CC(NC(=O)c1ccc(N(C)C)cc1)c1ccc(F)cc1` (stereo unspecified) showed a solubility (kinetic) of 6.5 µg/mL (≈ 22.7 µM). With `Cc1ccc([N+](=O)[O-])c(OCCn2cnc3ccccc32)c1`, the kinetic solubility was found to be 11.6 µg/mL (≈ 39 µM). For `CCc1nc2ccc(N3CCN(C)CC3)cc2nc1CC`, the kinetic solubility stood at 35.2 µg/mL (≈ 124 µM). The compound `O=C(COC(=O)c1ccc(F)c(S(=O)(=O)N2CCOCC2)c1)NCCc1ccc(F)cc1` gave a solubility (kinetic) of 17.5 µg/mL (≈ 37.4 µM). In turn, `O=Cc1ccc(Sc2ncccn2)o1` gave a kinetic solubility of 24.2 µg/mL (≈ 117 µM). Regarding `Cc1cc(OCC(=O)Nc2ccncc2)ccc1Cl`, the kinetic solubility is 40.6 µg/mL (≈ 147 µM). Turning to `Clc1ccc(COC(Cn2ccnc2)c2ccc(Cl)cc2Cl)c(Cl)c1.O=[N+]([O-])O` (stereo unspecified), the solubility (kinetic) is 26.3 µg/mL. The compound `CC1(c2ccc3ccccc3c2)NC(=O)N(CC(=O)O)C1=O` (stereo unspecified) registered a kinetic solubility greater than 44.7 µg/mL. The result for `Cn1c(N)c(-c2ccccc2)c2ccc([N+](=O)[O-])cc2c1=O` reads 1.1 µg/mL (≈ 3.73 µM); that for `CCOC(=O)c1c(-c2ccc(C)o2)csc1NC(=O)CN1CCC(C(N)=O)CC1`, 31 µg/mL (≈ 73.9 µM); that for `CC1(c2ccc(Cl)cc2)NC(=O)N(CC(=O)N2CCc3ccccc32)C1=O` (stereo unspecified), 1.5 µg/mL (≈ 3.91 µM). The result for `O=C(NCc1ccco1)c1cccc(C(F)(F)F)c1` reads greater than 40.4 µg/mL; that for `Cc1cc(/C=C(\C#N)C(=O)OCC#N)c(C)n1CC(C)C`, 13.6 µg/mL (≈ 47.7 µM); that for `CCCNS(=O)(=O)c1ccc(OCC(=O)NCC2CCCO2)cc1` (stereo unspecified), 51.2 µg/mL (≈ 144 µM).

Consider `O=S(=O)(c1ccsc1)N1CC=C(c2ccccc2)CC1`, for which the solubility (kinetic) stood at 3.8 µg/mL (≈ 12.4 µM). The same measure for `NC(Cc1c[nH]c2ccccc12)C(=O)NCc1ccco1` (stereo unspecified): greater than 42.5 µg/mL.

The compound `Cc1cc(O)c(NC(=O)c2cccc([N+](=O)[O-])c2)cc1C` displayed a kinetic solubility of less than 0.3 µg/mL. On to `COc1cc(/C=C(\C#N)C(=O)NC(C)C)cc(Cl)c1O`, for which the solubility (kinetic) is 28.4 µg/mL (≈ 96.4 µM). `O=C(COc1ccccc1[N+](=O)[O-])NC1CC1`: the solubility (kinetic) came out at 29.1 µg/mL (≈ 123 µM). This solubility kinetic and that of the compound before are within 1.5-fold of each other. As for `C[n+]1cn(Cc2ccc(C#N)cc2)c2ccccc21.[Cl-]`, the kinetic solubility came to 39.4 µg/mL. Compound `CCN1CCN(c2nnc(-c3ccccc3)c3ccccc23)CC1` showed a solubility (kinetic) greater than 47.8 µg/mL.
